Assay [1] relates to obese diabetic patients. The assay is described as follows: Oral Glucose Tolerance Test (OGTT) or standardized meal after a single dose. The note with it: overnight fasted patients. The assay is classed as in vivo, human. How it is done: Drug is delivered as an enema or suppositories made as described in^1 (containing 1 g of glutamine). 10 overnight fasted obese diabetic patients with impaired gut hormone effect^3 and/or impaired gut hormone secretion^4,5 are dosed rectally with one suppository (or enema). 30 minutes after drug administration, patients are subjected to Oral Glucose Tolerance Test (OGTT) or standardized meal. Blood is collected at the following time points: −30, 0, 5; 10, 15, 30, 60, 90, and 120 minutes. Blood is analyzed for levels of: glucose, insulin, GLP-1, PYY, other hormones and lipids. […] Drug is delivered as an enema or suppositories made as described in^1 (containing 2 g of butyric acid). 10 overnight fasted obese diabetic patients with impaired incretin effect^3 and/or impaired gut hormone secretion^4,5 are dosed rectally with one suppository (or enema). 30 minutes after drug administration, patients are subjected to Oral Glucose Tolerance Test (OGTT) or standardized meal. Blood is collected at the following time points: −30, 0, 5; 10, 15, 30, 60, 90, and 120 minutes. Blood is analyzed for levels of: glucose, insulin, GLP-1, PYY, other hormones and lipids. […] Tablets formulated with MMX technology (containing 1 g of glutamine) are made as described in^2. 10 overnight fasted obese diabetic patients with impaired gut hormone effect^3 and/or impaired gut hormone secretion^4,5 are dosed with one MMX tablet at 8:00 AM. 4 hrs after drug administration, patients are subjected to Oral Glucose Tolerance Test (OGTT) or standardized meal. Blood is collected at the following time points: −30, 0, 5; 10, 15, 30, 60, 90, and 120 minutes. Blood is analyzed for levels of: glucose, insulin, GLP-1, PYY, other hormones and lipids. […] Tablets formulated with MMX technology (containing 2 g of butyric acid) are made as described in^2. 10 overnight fasted obese diabetic patients with impaired gut hormone effect^3 and/or impaired gut hormone secretion^4,5 are dosed with one MMX tablet at 8:00 AM. 4 hrs after drug administration, patients are subjected to Oral Glucose Tolerance Test (OGTT) or standardized meal. Blood is collected at the following time points: −30, 0, 5; 10, 15, 30, 60, 90, and 120 minutes. Blood is analyzed for levels of: glucose, insulin, GLP-1, PYY, other hormones and lipids.

Assay [2] relates to obese diabetic patients. Briefly: Six-week once-daily MMX tablet treatment with OGTT or standardized meal. Format: in vivo, human. Particulars: one MMX tablet daily before first meal for six weeks. How it is done: Tablets formulated with MMX technology (containing 1 g of glutamine) are made as described in^2. 10 obese diabetic patients with impaired incretin effect^3 and/or impaired incretin secretion^4,5 are dosed with one MMX tablet at 8:00 AM before first meal for six (6) weeks. HbA1c, fasting glucose and insulin are measured before treatment and at 1, 2, and 6 weeks after initiation of the treatment. Additionally, patients are subjected at these times to Oral Glucose Tolerance Test (OGTT) or standardized meal. Blood is collected at the following time points: −30, 0, 5; 10, 15, 30, 60, 90, and 120 minutes. Blood is analyzed for levels of: glucose, insulin, GLP-1, PYY, other hormones and lipids. […] Tablets formulated with MMX technology (containing 2 g of butyric acid) are made as described in^2. 10 obese diabetic patients with impaired gut hormone effect^3 and/or impaired gut hormone secretion^4,5 are dosed with one MMX tablet at 8:00 AM before first meal for six (6) weeks. HbA1c, fasting glucose and insulin are measured before the treatment and at 1, 2, and 6 weeks after initiation of the treatment. Additionally, patients are subjected at these times to Oral Glucose Tolerance Test (OGTT) or standardized meal. Blood is collected at the following time points: −30, 0, 5; 10, 15, 30, 60, 90, and 120 min. Blood is analyzed for levels of: glucose, insulin, GLP-1, PYY, other hormones and lipids.

The mark [3] stands for this setting: one MMX tablet orally, 4 hrs before OGTT or standardized meal.
[4] abbreviates: one MMX tablet orally, 4 hrs before standardized meal.
Where [5] appears, read: one suppository or enema rectally, 30 minutes before OGTT or standardized meal.
The mark [6] stands for this setting: one suppository or enema rectally, 30 minutes before standardized meal.

Regarding `CCCC(=O)O` [butyric acid], the Glucose levels entry in assay [1] (setting [3]), in assay [1] (setting [5]) and in assay [2] was “decrease” in each case. The “lipids levels (after standardized meal)” value in assay [1] (setting [4]) and in assay [1] (setting [6]) was “decrease” in each case. Besides, in assay [2], the “triglycerides levels versus pre-treatment” value was “lower than pre-treatment levels”.
With `NC(=O)CC[C@H](N)C(=O)O` [glutamine], the Glucose levels result in assay [1] (setting [3]), in assay [1] (setting [5]) and in assay [2] was “decrease” throughout. The “lipids levels (after standardized meal)” value in assay [1] (setting [4]) and in assay [1] (setting [6]) was “decrease” each time. Besides, the “triglycerides levels versus pre-treatment” value in assay [2] is “lower than pre-treatment levels”.

Values taken from patent publication US9301938B2, “Composition and method for treatment of diabetes” (BioKier, Inc., priority 2009, dated 2016).
